Inconclusive results and toxic doses are left out. No stated cut-off is given here; in the data, active means T/C of 150% or more; inactive means T/C below 125%.
Test system: L1210 leukemia ip in BDF1 mice, survival T/C
Experiment: NCI In Vivo Anticancer Drug Screen. Data for tumor model L1210 Leukemia (intraperitoneal) in B6D2F1 (BDF1) mice
Details: endpoint: mean survival time, higher = longer survival
How it was run: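 Survival endpoint. Drug-treated group vs vehicle group, expressed as T divided by C. Tumor passaged by transplantation.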

[1] = dose: 25.0 mg/kg/injection, schedule: Q04DX003 (ip), vehicle: saline with Tween-80
[2] = dose: 50.0 mg/kg/injection, schedule: Q04DX003 (ip), vehicle: saline with Tween-80
[3] = dose: 100.0 mg/kg/injection, schedule: Q01DX001 (ip), vehicle: saline with Tween-80
[4] = dose: 200.0 mg/kg/injection, schedule: Q01DX001 (ip), vehicle: saline with Tween-80
[5] = dose: 100.0 mg/kg/injection, schedule: Q04DX003 (ip), vehicle: saline with Tween-80
[6] = dose: 200.0 mg/kg/injection, schedule: Q04DX003 (ip), vehicle: saline with Tween-80
[7] = dose: 400.0 mg/kg/injection, schedule: Q04DX003 (ip), vehicle: saline with Tween-80
[8] = dose: 100.0 mg/kg/injection, schedule: Q01DX009 (ip), vehicle: saline
[9] = dose: 200.0 mg/kg/injection, schedule: Q01DX009 (ip), vehicle: saline
[10] = dose: 400.0 mg/kg/injection, schedule: Q01DX009 (ip), vehicle: saline
[11] = dose: 50.0 mg/kg/injection, schedule: Q01DX009 (ip), vehicle: saline
[12] = dose: 50.0 mg/kg/injection, schedule: Q01DX001 (ip), vehicle: saline with Tween-80
[13] = dose: 100.0 mg/kg/injection, schedule: Q01DX001 (ip), vehicle: saline
[14] = dose: 200.0 mg/kg/injection, schedule: Q01DX001 (ip), vehicle: saline
[15] = dose: 400.0 mg/kg/injection, schedule: Q01DX001 (ip), vehicle: saline
[16] = dose: 25.0 mg/kg/injection, schedule: Q01DX009 (ip), vehicle: saline

Measured: T/C

O=C([S][Ge]([c]1ccccc1)([c]1ccccc1)[c]1ccccc1)c1ccc([N+](=O)[O-])cc1
inactive: dose: 100.0 mg/kg/injection, schedule: Q01DX009 (ip), vehicle: Klucel (hydroxypropylcellulose) (HPC) 114 % of control | dose: 200.0 mg/kg/injection, schedule: Q01DX009 (ip), vehicle: Klucel (hydroxypropylcellulose) (HPC) 92 % of control

O=C1C=C(Nc2ccc(Cl)cc2)c2ccccc2C1=O
inactive: dose: 100.0 mg/kg/injection, schedule: Q01DX001 (ip), vehicle: other 98 % of control | dose: 200.0 mg/kg/injection, schedule: Q01DX001 (ip), vehicle: other 90 % of control | dose: 400.0 mg/kg/injection, schedule: Q01DX001 (ip), vehicle: other 95 % of control

O=S(=O)(Cl)OC1C2COC(O2)C(OS(=O)(=O)Cl)C1OS(=O)(=O)Cl (centres undefined)
inactive: dose: 12.5 mg/kg/injection, schedule: Q04DX003 (ip), vehicle: saline with Tween-80 102 % of control | [1] 92 % of control | [2] 96 % of control

O=C(O)c1ccc(NCc2cccc(NCCCc3ccccc3)c2)cc1
inactive: [3] 92 % of control | [4] 92 % of control | dose: 400.0 mg/kg/injection, schedule: Q01DX001 (ip), vehicle: saline with Tween-80 93 % of control

NC(=O)CCNCCSC(=O)c1ccccc1
inactive: [5] 102 % of control | [6] 100 % of control | [7] 96 % of control

CN(C)NC(=O)CC(N)C(=O)O (centres undefined)
inactive: [8] 97 % of control | [9] 114 % of control | [10] 100 % of control

CCCCCCCC[N+](C)(CCCCCCCC)CCCCCCCC
inactive: dose: 0.04 mg/kg/injection, schedule: Q01DX009 (ip), vehicle: saline 86 % of control | dose: 0.09 mg/kg/injection, schedule: Q01DX009 (ip), vehicle: saline 100 % of control | dose: 0.19 mg/kg/injection, schedule: Q01DX009 (ip), vehicle: saline 101 % of control | dose: 0.19 mg/kg/injection, schedule: Q04DX003 (ip), vehicle: acetone 112 % of control | dose: 0.28 mg/kg/injection, schedule: Q01DX009 (ip), vehicle: saline with Tween-80 114 % of control | dose: 0.39 mg/kg/injection, schedule: Q01DX001 (ip), vehicle: saline with Tween-80 105 % of control | dose: 0.43 mg/kg/injection, schedule: Q01DX009 (ip), vehicle: saline with Tween-80 116 % of control | dose: 0.5 mg/kg/injection, schedule: Q01DX015 (ip), vehicle: saline 97 % of control | dose: 0.64 mg/kg/injection, schedule: Q01DX009 (ip), vehicle: saline with Tween-80 118 % of control | dose: 0.78 mg/kg/injection, schedule: Q01DX001 (ip), vehicle: saline with Tween-80 90 % of control | dose: 1.0 mg/kg/injection, schedule: Q01DX015 (ip), vehicle: saline 95 % of control | dose: 1.56 mg/kg/injection, schedule: Q01DX001 (ip), vehicle: saline with Tween-80 114 % of control

CCCCCCOC(=O)N1CCN(c2ccccc2)CC1
inactive: [11] 106 % of control | [8] 92 % of control | [9] 90 % of control

Cc1cc(/C=C/c2ccc3cc(N(C)C)ccc3[n+]2C)c(C)n1-c1ccccc1
inactive: dose: 1.56 mg/kg/injection, schedule: Q01DX009 (ip), vehicle: saline with Tween-80 112 % of control

O=C1C(c2ccccc2)=C(N2CCCCC2)C(=O)C(c2ccccc2)=C1N1CCCCC1
inactive: dose: 100.0 mg/kg/injection, schedule: Q01DX001 (ip), vehicle: carboxymethylcellulose (CMC) 90 % of control | dose: 200.0 mg/kg/injection, schedule: Q01DX001 (ip), vehicle: carboxymethylcellulose (CMC) 90 % of control | dose: 400.0 mg/kg/injection, schedule: Q01DX001 (ip), vehicle: carboxymethylcellulose (CMC) 94 % of control

O=C(NCc1ccccc1)c1ccccc1
inactive: dose: 100.0 mg/kg/injection, schedule: Q04DX003 (ip), vehicle: Klucel (hydroxypropylcellulose) (HPC) 97 % of control | dose: 200.0 mg/kg/injection, schedule: Q04DX003 (ip), vehicle: Klucel (hydroxypropylcellulose) (HPC) 95 % of control | dose: 400.0 mg/kg/injection, schedule: Q04DX003 (ip), vehicle: Klucel (hydroxypropylcellulose) (HPC) 100 % of control

Nc1ncnc2nc(-c3ccc(OCCCOc4ccccc4)c(Cl)c3)[nH]c12
inactive: dose: 6.25 mg/kg/injection, schedule: Q01DX001 (ip), vehicle: saline with Tween-80 94 % of control | dose: 12.5 mg/kg/injection, schedule: Q01DX001 (ip), vehicle: saline with Tween-80 89 % of control | [12] 88 % of control

NSc1ccc(N)s1
inactive: dose: 100.0 mg/kg/injection, schedule: Q04DX002 (ip), vehicle: saline with Tween-80 108 % of control | dose: 200.0 mg/kg/injection, schedule: Q04DX002 (ip), vehicle: saline with Tween-80 101 % of control | dose: 400.0 mg/kg/injection, schedule: Q04DX002 (ip), vehicle: saline with Tween-80 108 % of control

COc1ccc(-c2c(COC(C)=O)c(COC(C)=O)c3n2CCC3)cc1
inactive: dose: 50.0 mg/kg/injection, schedule: Q01DX009 (ip), vehicle: Klucel (hydroxypropylcellulose) (HPC) 113 % of control

N#Cc1cn(C2CCCCC2)c2ncccc12
inactive: [1] 90 % of control | [2] 97 % of control | [5] 93 % of control

O=C1NCCCN1C1OC(CO)C(O)C1O (centres undefined)
inactive: dose: 100.0 mg/kg/injection, schedule: Q01DX005 (ip), vehicle: saline 107 % of control | dose: 200.0 mg/kg/injection, schedule: Q01DX005 (ip), vehicle: saline 104 % of control

NCC(=O)Nc1ccc(S(=O)(=O)c2ccc(NC(=O)CN)cc2)cc1
inactive: [13] 104 % of control | [14] 101 % of control | [15] 98 % of control

Cc1cc2cccc[n+]2cc1C
inactive: dose: 12.5 mg/kg/injection, schedule: Q01DX009 (ip), vehicle: saline 95 % of control | [16] 98 % of control

CCCCCCCCCCC1CCC2CCC3CCCC4CCC1C2C34 (centres undefined)
inactive: dose: 25.0 mg/kg/injection, schedule: Q04DX003 (ip), vehicle: acetone 96 % of control | dose: 50.0 mg/kg/injection, schedule: Q04DX003 (ip), vehicle: acetone 88 % of control | [13] 88 % of control | dose: 100.0 mg/kg/injection, schedule: Q04DX003 (ip), vehicle: acetone 86 % of control | [14] 90 % of control

COC(OC)c1[nH]c(=S)[nH]c(=O)c1CCc1ccccc1
inactive: dose: 100.0 mg/kg/injection, schedule: Q04DX002 (ip), vehicle: Klucel (hydroxypropylcellulose) (HPC) 97 % of control | dose: 200.0 mg/kg/injection, schedule: Q04DX002 (ip), vehicle: Klucel (hydroxypropylcellulose) (HPC) 97 % of control | dose: 400.0 mg/kg/injection, schedule: Q04DX002 (ip), vehicle: Klucel (hydroxypropylcellulose) (HPC) 86 % of control

COc1nc2c(=O)[nH]cnc2n1C1OC(CO)C(O)C1O (centres undefined)
inactive: [13] 96 % of control | [14] 100 % of control | [15] 97 % of control

O=C(Nc1ccc([N+](=O)[O-])cc1Cl)Oc1ccc(Cl)cc1Cc1ccccc1
inactive: [5] 88 % of control | [6] 93 % of control | [7] 102 % of control

COc1cc(C)ccc1I
inactive: [12] 100 % of control | [3] 100 % of control | [4] 100 % of control

C[C@]12CC[C@@H]3c4ccc(O)cc4CC[C@H]3[C@@H]1C[C@H](O)C2
inactive: dose: 100.0 mg/kg/injection, schedule: Q01DX001 (sc), vehicle: steriod suspending solution 98 % of control | dose: 100.0 mg/kg/injection, schedule: Q04DX003 (sc), vehicle: steriod suspending solution 96 % of control | dose: 200.0 mg/kg/injection, schedule: Q01DX001 (sc), vehicle: steriod suspending solution 102 % of control | dose: 200.0 mg/kg/injection, schedule: Q04DX003 (sc), vehicle: steriod suspending solution 104 % of control | dose: 400.0 mg/kg/injection, schedule: Q01DX001 (sc), vehicle: steriod suspending solution 105 % of control | dose: 400.0 mg/kg/injection, schedule: Q04DX003 (sc), vehicle: steriod suspending solution 94 % of control

COc1cc2c(cc1OCc1ccccc1)C=CN(C(=O)c1ccccc1)C2C#N (centres undefined)
inactive: [16] 100 % of control | [11] 94 % of control | [8] 94 % of control | [9] 93 % of control | [10] 98 % of control

From PubChem BioAssay AID248 (DTP/NCI, 2004)
